Key:
Type in all cases: functional
[1] = tested on: Helicoverpa assulta; assay: Resistance factor, ratio of LD50 for sixth-instar larvae of Helicoverpa assulta YN6 to LD50 for sixth-instar larvae of Helicoverpa assulta at 1.8 to 183360 mg/l
[2] = tested on: Helicoverpa assulta; assay: Insecticidal activity against sixth-instar larvae of Helicoverpa assulta HB1 at 1.8 to 183360 mg/l after 48 hr by chi-squared analysis
[3] = tested on: Helicoverpa assulta; assay: Insecticidal activity against sixth-instar larvae of Helicoverpa assulta YN8 at 1.8 to 183360 mg/l after 48 hr by chi-squared analysis
[4] = tested on: Helicoverpa assulta; assay: Resistance factor, ratio of LD50 for sixth-instar larvae of Helicoverpa assulta SD1 to LD50 for sixth-instar larvae of Helicoverpa assulta at 1.8 to 183360 mg/l
[5] = tested on: Helicoverpa assulta; assay: Insecticidal activity against sixth-instar larvae of Helicoverpa assulta SD1 at 1.8 to 183360 mg/l after 48 hr by chi-squared analysis
[6] = tested on: Helicoverpa assulta; assay: Insecticidal activity against sixth-instar larvae of Helicoverpa assulta SD2 at 1.8 to 183360 mg/l after 48 hr by chi-squared analysis
[7] = tested on: Helicoverpa assulta; assay: Resistance factor, ratio of LD50 for sixth-instar larvae of Helicoverpa assulta FJ2 to LD50 for sixth-instar larvae of Helicoverpa assulta at 1.8 to 183360 mg/l
[8] = tested on: Helicoverpa assulta; assay: Insecticidal activity against sixth-instar larvae of Helicoverpa assulta AH3 at 1.8 to 183360 mg/l after 48 hr by chi-squared analysis
[9] = tested on: Helicoverpa assulta; assay: Resistance factor, ratio of LD50 for sixth-instar larvae of Helicoverpa assulta AH1 to LD50 for sixth-instar larvae of Helicoverpa assulta at 1.8 to 183360 mg/l
[10] = tested on: Helicoverpa assulta; assay: Resistance factor, ratio of LD50 for sixth-instar larvae of Helicoverpa assulta AH3 to LD50 for sixth-instar larvae of Helicoverpa assulta at 1.8 to 183360 mg/l
[11] = tested on: Helicoverpa assulta; assay: Insecticidal activity against sixth-instar larvae of Helicoverpa assulta FJ2 at 1.8 to 183360 mg/l after 48 hr by chi-squared analysis
[12] = tested on: Helicoverpa assulta; assay: Resistance factor, ratio of LD50 for sixth-instar larvae of Helicoverpa assulta HB1 to LD50 for sixth-instar larvae of Helicoverpa assulta at 1.8 to 183360 mg/l
[13] = tested on: Helicoverpa assulta; assay: Insecticidal activity against sixth-instar larvae of Helicoverpa assulta GZ5 at 21 to 3390 mg/l after 48 hr by chi-squared analysis
[14] = tested on: Helicoverpa assulta; assay: Resistance factor, ratio of LD50 for sixth-instar larvae of Helicoverpa assulta HN1 to LD50 for sixth-instar larvae of Helicoverpa assulta at 21 to 3390 mg/l
[15] = tested on: Helicoverpa assulta; assay: Insecticidal activity against sixth-instar larvae of Helicoverpa assulta FJ2 at 21 to 3390 mg/l after 48 hr by chi-squared analysis
[16] = tested on: Helicoverpa assulta; assay: Resistance factor, ratio of LD50 for sixth-instar larvae of Helicoverpa assulta YN2 to LD50 for sixth-instar larvae of Helicoverpa assulta at 21 to 3390 mg/l
[17] = tested on: Helicoverpa assulta; assay: Insecticidal activity against sixth-instar larvae of Helicoverpa assulta GZ3 at 21 to 3390 mg/l after 48 hr by chi-squared analysis
[18] = tested on: Helicoverpa assulta; assay: Insecticidal activity against sixth-instar larvae of Helicoverpa assulta YN4 at 21 to 3390 mg/l after 48 hr by chi-squared analysis
[19] = tested on: Helicoverpa assulta; assay: Insecticidal activity against sixth-instar larvae of Helicoverpa assulta YN5 at 21 to 3390 mg/l after 48 hr by chi-squared analysis
[20] = tested on: Helicoverpa assulta; assay: Insecticidal activity against sixth-instar larvae of Helicoverpa assulta GZ1 at 21 to 3390 mg/l after 48 hr by chi-squared analysis
[21] = tested on: Helicoverpa assulta; assay: Resistance factor, ratio of LD50 for sixth-instar larvae of Helicoverpa assulta YN1 to LD50 for sixth-instar larvae of Helicoverpa assulta at 21 to 3390 mg/l
[22] = tested on: Helicoverpa assulta; assay: Resistance factor, ratio of LD50 for sixth-instar larvae of Helicoverpa assulta AH3 to LD50 for sixth-instar larvae of Helicoverpa assulta at 21 to 3390 mg/l
[23] = tested on: Helicoverpa assulta; assay: Resistance factor, ratio of LD50 for sixth-instar larvae of Helicoverpa assulta GZ1 to LD50 for sixth-instar larvae of Helicoverpa assulta at 21 to 3390 mg/l
[24] = tested on: Helicoverpa assulta; assay: Insecticidal activity against sixth-instar larvae of Helicoverpa assulta AH2 at 21 to 3390 mg/l after 48 hr by chi-squared analysis
[25] = tested on: Helicoverpa assulta; assay: Resistance factor, ratio of LD50 for sixth-instar larvae of Helicoverpa assulta SD1 to LD50 for sixth-instar larvae of Helicoverpa assulta at 21 to 3390 mg/l
[26] = tested on: Helicoverpa assulta; assay: Insecticidal activity against sixth-instar larvae of Helicoverpa assulta SD2 at 21 to 3390 mg/l after 48 hr by chi-squared analysis
[27] = tested on: Helicoverpa assulta; assay: Resistance factor, ratio of LD50 for sixth-instar larvae of Helicoverpa assulta YN1 to LD50 for sixth-instar larvae of Helicoverpa assulta at 39 to 12630 mg/l
[28] = tested on: Helicoverpa assulta; assay: Insecticidal activity against sixth-instar larvae of Helicoverpa assulta at 39 to 12630 mg/l after 48 hr by chi-squared analysis
[29] = tested on: Helicoverpa assulta; assay: Insecticidal activity against sixth-instar larvae of Helicoverpa assulta FJ1 at 39 to 12630 mg/l after 48 hr by chi-squared analysis
[30] = tested on: Helicoverpa assulta; assay: Insecticidal activity against sixth-instar larvae of Helicoverpa assulta FJ3 at 39 to 12630 mg/l after 48 hr by chi-squared analysis
[31] = tested on: Helicoverpa assulta; assay: Insecticidal activity against sixth-instar larvae of Helicoverpa assulta GZ2 at 39 to 12630 mg/l after 48 hr by chi-squared analysis
[32] = tested on: Helicoverpa assulta; assay: Resistance factor, ratio of LD50 for sixth-instar larvae of Helicoverpa assulta YN4 to LD50 for sixth-instar larvae of Helicoverpa assulta at 39 to 12630 mg/l
[33] = tested on: Helicoverpa assulta; assay: Resistance factor, ratio of LD50 for sixth-instar larvae of Helicoverpa assulta AH3 to LD50 for sixth-instar larvae of Helicoverpa assulta at 39 to 12630 mg/l
[34] = tested on: Helicoverpa assulta; assay: Resistance factor, ratio of LD50 for sixth-instar larvae of Helicoverpa assulta YN7 to LD50 for sixth-instar larvae of Helicoverpa assulta at 39 to 12630 mg/l
[35] = tested on: Helicoverpa assulta; assay: Insecticidal activity against sixth-instar larvae of Helicoverpa assulta YN2 at 39 to 12630 mg/l after 48 hr by chi-squared analysis

`CC(C)C(C(=O)OC(C#N)c1cccc(Oc2ccccc2)c1)c1ccc(Cl)cc1` (centres undefined) [FENVALERATE] showed a Ratio [1] of 4115, an LD90 [2] of 7.34 µg/g and an LD50 ([2]; Helicoverpa assulta, HB1, 48 h) of 0.944 mg/kg. For the same compound, the LD90 [3] was 9100 µg/g, the LD50 ([3]; Helicoverpa assulta, YN8, 48 h) was 2860 mg/kg and the Ratio [4] was 9.8. For the same compound, the LD90 [5] was 14.8 µg/g, the LD50 ([5]; Helicoverpa assulta, SD1, 48 h) was 1.59 mg/kg and the LD90 [6] was 27.2 µg/g. The LD50 ([6]; Helicoverpa assulta, SD2, 48 h) was 1.94 mg/kg, the Ratio [7] was 12.9 and the LD90 [8] was 470 µg/g. The LD50 ([8]; Helicoverpa assulta, AH3, 48 h) was 251 mg/kg, the Ratio [9] was 2054 and the Ratio [10] was 1546. The LD90 [11] was 4.91 µg/g, the LD50 ([11]; Helicoverpa assulta, FJ2, 48 h) was 2.08 mg/kg and the Ratio [12] was 5.83.

`CNC(=O)ON=C(C)SC` [METHOMYL] gave an LD90 [13] of 64.6 µg/g, an LD50 ([13]; Helicoverpa assulta, GZ5, 48 h) of 21 mg/kg and a Ratio [14] of 4.48. For the same compound, the LD90 [15] was 108 µg/g, the LD50 ([15]; Helicoverpa assulta, FJ2, 48 h) was 28.7 mg/kg and the Ratio [16] was 18.4. It also gave an LD90 [17] of 66.7 µg/g, an LD50 ([17]; Helicoverpa assulta, GZ3, 48 h) of 20.8 mg/kg and an LD90 [18] of 62.2 µg/g. It also gave an LD50 ([18]; Helicoverpa assulta, YN4, 48 h) of 16.7 mg/kg, an LD90 [19] of 37.7 µg/g and an LD50 ([19]; Helicoverpa assulta, YN5, 48 h) of 14.3 mg/kg. For the same compound, the LD90 [20] was 131 µg/g, the LD50 ([20]; Helicoverpa assulta, GZ1, 48 h) was 41.8 mg/kg and the Ratio [21] was 31.6. The Ratio [22] was 12.7, the Ratio [23] was 28.9 and the LD90 [24] was 59.6 µg/g. The LD50 ([24]; Helicoverpa assulta, AH2, 48 h) was 22.1 mg/kg, the Ratio [25] was 3.93 and the LD90 [26] was 41.8 µg/g. The LD50 ([26]; Helicoverpa assulta, SD2, 48 h) was 8.92 mg/kg.

Compound `CCOP(=S)(OCC)O/N=C(\C#N)c1ccccc1` [PHOXIM] has a Ratio [27] of 8.72, an LD90 [28] of 5.54 µg/g and an LD50 ([28]; Helicoverpa assulta, 48 h) of 2.34 mg/kg. The LD90 [29] was 62.2 µg/g, the LD50 ([29]; Helicoverpa assulta, FJ1, 48 h) was 16.7 mg/kg and the LD90 [30] was 36.9 µg/g. For the same compound, the LD50 ([30]; Helicoverpa assulta, FJ3, 48 h) was 19 mg/kg, the LD90 [31] was 101 µg/g and the LD50 ([31]; Helicoverpa assulta, GZ2, 48 h) was 25.3 mg/kg. For the same compound, the Ratio [32] was 16.9, the Ratio [33] was 14.3 and the Ratio [34] was 17.9. The LD90 [35] was 107 µg/g and the LD50 ([35]; Helicoverpa assulta, YN2, 48 h) was 34.8 mg/kg.
